Test results reported in EP0294814B1, “Treating agents for renal diseases” (DAIICHI PHARMACEUTICAL CO., LTD., priority 1987, dated 1988).
Counter-ions that a name gives are not always drawn.

What was measured:
[1] = test system: diabetic nephropathy or glomerulonephritis; conditions: applied to diabetic nephropathy or glomerulonephritis, literature reports; cited from earlier work
thromboxane A₂ = conditions: known from prior art; cited from earlier work
Diabetic SHR = experiment: Diabetic nephropathy model: excretion of protein, γ-GTP and NAβG in the urine; type: in vivo, rat; conditions: after 4 months of administration
Protocol: (§1) 5-Week old spontaneous hypertensive male rats (SHR) and normotensive Wister Kyoto rats (WKY), both available from Nippon Charles River, were used. Streptozotocin (STZ) was dissolved in a 0.1M citrate buffer solution (pH 4.5) and injected to the tail vein of the rat at a dose level of 50 mg/kg to prepare a diabetic rat. For control, the rat received 1 ml/kg of the citrate buffer solution alone through administration to the tail vein. After one week from the STZ administration, blood was taken from the tail vein of the unanesthetized rat, and the blood sugar level was measured. Those rats having a blood sugar level of […] or higher were used as diabetic rats. […]
After 4 months from the start of the administration of Compound A, urine was collected for 24 hours, and the protein, γ-GTP activity and NAβG activity in the urine were determined by the method of Kinsbury et al., the method of using a commercially available kit (γ-GTP Test Pack, produced by Sankyo Co., Ltd.), and the method of Hasebe et al., respectively.

[2] = Hydronephrosis model: clearance test; type: in vivo, SD male rat; conditions: Normal Kidney, 0.3 µg/min infused into renal artery, mean±S.E. of 5 cases
Protocol: (§2) An abdominal incision was made in a SD male rat having a body weight of from 300 to 400 g under light anesthesia with diethyl ether. After the left urinary tract was ligated in the middle between the bladder and the kidney, the incision was closed, and the animal was fed on foods and tap water, ad lib.
(§3) After 18 hours from the ligation of the urinary tract, a cannula was inserted in the urinary tracts on both sides, the right femoral artery and the right femoral vein for collection of blood samples, infusion of inulin and infusion of p-aminohippuric acid, respectively, under Inactin anesthesia. Physiological saline containing 20 mg/ml of inulin and physiological saline containing 4 mg/ml of p-aminohippuric acid were continuously infused each at a rate of 0.4 ml/min in a 1/20 amount of the body weight. On confirming that the urinary output became constant after 50 minutes from the start of the infusion, urine was collected separately from the right and left urinary tracts at intervals of 20 minutes, and blood samples were obtained at the middle between urine collections. Immediately preceding the start of urine collection, infusion of physiological saline at a rate of 25 µl/min into the left femoral artery was instituted and continued for 40 minutes. Thereafter, a solution of a hydrochloride hemihydrate of Compound A in physiological saline was continuously infused at a dose level of 0.3 µg/25 µl/min/rat for 40 minutes into the inlet of the renal artery through a retrograde cannula inserted from the left femoral artery. Inulin levels in urine and in blood were determined according to the anthrone method (H.H. Hilger et al., Pflügers Arch Physiol., Vol. 267, 218 (1958)), and p-aminohippuric acid levels in urine and blood were determined according to the method of Smith et al. (H.W. Smith et al., J. Clin. Invest., Vol. 24, 388 (1945)), to calculate clearance values of inulin and p-aminohippuric acid.

Hydronephrotic Kidney = experiment: Hydronephrosis model: clearance test; type: in vivo, SD male rat; conditions: Normal Kidney, 0.3 µg/min infused into renal artery, mean±S.E. of 5 cases
Protocol: as §2, §3

[3] = Diabetic nephropathy model: influence on body weight of SHR and diabetic SHR; type: in vivo, rat; conditions: SHR
Protocol: as §1

[4] = test system: Ischemic Insufficient Kidney; experiment: Ischemic renal insufficiency model: renal function; type: in vivo, SD rat; conditions: 10 mg/kg intraperitoneally 30 minutes before ligature of renal arteries; 24 hours after reperfusion; mean±S.E.
Protocol: An abdominal incision was made in a SD vale rat weighing 300 to 450 g under pentobarbital anesthesia, and renal arteries of both sides were ligated with a clamp for 40 minutes and then reopened to prepare an animal suffering from isochemic renal insufficiency.
The hydrochloride hemihydrate of Compound A was dissolved in physiological saline, and administered intraperitoneally to the test animal at a dose level of 10 mg/2 ml/kg 30 minutes before the ligature of the renal arteries. The control group received the same volume of physiological saline.
After the blood flow of the renal arteries was restored, the animal was fed on foods and tap water ad lib. for 24 hours. The clearance values of inulin and p-aminohippuric acid were determined in the same manner as described in Example 2.

rats = experiment: Acute toxicity in rats; type: in vivo
Source text: Acute toxicities of a hydrochloride hemihydrate of Compound A in rats through oral administration or intravenous injection were as follows.

Cl.O=C(O)/C=C/c1ccc(Cn2ccnc2)cc1 [(E)-3-(4-(1-Imidazolylmethyl)phenyl)propenoic acid hydrochloride, reference compound]
effect in treatment of renal diseases [1]: not satisfactory | inhibition of the synthesis of thromboxane A₂ (thromboxane A₂): inhibit the synthesis of thromboxane A₂

O=C(O)c1ccc2c(c1)CCC(Cn1ccnc1)C2 (centres unmarked) [Compound A, 6-(1-imidazolylmethyl)-5,6,7,8-tetrahydronaphthalene-2-carboxylic acid]
Excretion in Urine for 24 h NAβG (Diabetic SHR; 1 mg/kg/day oral): 0.536± 0.086 mg/100 g B.W. | Excretion in Urine for 24 h Protein (Diabetic SHR; 1 mg/kg/day oral): 6.82± 1.56 mg/100 g B.W. | Excretion in Urine for 24 h γ-GTP (Diabetic SHR; 1 mg/kg/day oral): 2.83± 0.32 U/100 g B.W. | Excretion in Urine for 24 h NAβG (Diabetic SHR; 10 mg/kg/day oral): 0.412± 0.056 mg/100 g B.W. | Excretion in Urine for 24 h Protein (Diabetic SHR; 10 mg/kg/day oral): 4.00± 0.59 mg/100 g B.W. | Excretion in Urine for 24 h γ-GTP (Diabetic SHR; 10 mg/kg/day oral): 2.45± 0.22 U/100 g B.W. | Inulin Clearance [2]: 1.77± 0.13 ml/min/ kidney | Urinary Output (Hydronephrotic Kidney): 7.47± 0.83 µℓ/min/ kidney | p-Aminohippuric Acid Clearance (Hydronephrotic Kidney): 5.95±0.50 ml/min/kidney | inhibition of the synthesis of thromboxane A₂ (thromboxane A₂): inhibit the synthesis of thromboxane A₂ | Body Weight (Mean±S.E.) ([3]; 1 mg/kg/day, 1 Month after start of admin.): 280.3 ± 4.0 g | Body Weight (Mean±S.E.) ([3]; 1 mg/kg/day, 5 Months after start of admin.): 392.4 ± 5.6 g | Body Weight (Mean±S.E.) ([3]; 10 mg/kg/day, 1 Month after start of admin.): 278.7 ± 5.3 g | Body Weight (Mean±S.E.) ([3]; 10 mg/kg/day, 5 Months after start of admin.): 385.3 ± 7.5 g | Inulin Clearance [4]: 0.32± 0.05 ml/min/kidney | Urinary Output [4]: 11.30± 1.53 µl/min/kidney | p-Aminohippuric Acid Clearance [4]: 1.01±0.17 ml/min/kidney

O=C(O)c1ccc2c(c1)CCC(Cn1ccnc1)C2 (centres unmarked) [hydrochloride hemihydrate of Compound A, 6-(1-imidazolylmethyl)-5,6,7,8-tetrahydronaphthalene-2-carboxylic acid]
LD₅₀ (rats; Female rats, i.v.): 783 (i.v.) mg | LD₅₀ (rats; Female rats, p.o.): 1994 (p.o.) mg | LD₅₀ (rats; Male rats, i.v.): 807 mg | LD₅₀ (rats; Male rats, p.o.): 2438 mg
